In one series the target is T1, MK2 enzyme (Homo sapiens, UniProt P49137).
T1 construct: MK2 enzyme (active enzyme (peptide 46-end (Millipore))); purchased Millipore
The series is described as follows: MK2 enzyme activity, IMAP fluorescence polarization assay. Format: biochemical. From the text:
In another assay the MK2 kinase activity can be determined by using an IMAP assay (Immobilized Metal Assay for Phosphochemicals—based coupled assay). IMAP is a homogeneous fluorescence polarization (FP) assay based on affinity capture of phosphorylated peptide substrates. IMAP uses fluorescein-labeled peptide substrates that, upon phosphorylation by a protein kinase, bind to so called IMAP nanoparticles, which are derivatized with trivalent metal complexes. […] In such an assay, MK2 phosphorylates a fluorescein-labeled peptide substrate (see example 14).
MK2 enzyme activity is measured using the IMAP (immobilized metal ion affinity-based fluorescence polarization) assay as outlined below.
The enzyme is diluted to 100 U/mL the day before use in KR buffer (10 mM Tris-HCl, 10 mM MgCl2, 0.01% Tween-20, 0.05% NaN3, 2 mM DTT, pH 7.2) and stored overnight at −20° C.
The dilutions in DMSO are then diluted 50-fold in KR-buffer of which 5 μl is used in the assay, leading to a final compound concentration range in the assay from 10 μM to 0.316 nM.
After 60 min incubation at room temperature in the dark the FP signal is read. Fluorescence at 535 nm is measured using parallel and perpendicular filters to determine differences in rotation due to binding of the phosphorylated substrate peptide to the beads. Values are calculated as percentage of the difference in readout (ΔmPi) of the controls with and without ATP. EC50 values are determined by curve fitting of the experimental results using Activity Base.
(In general: Polarisation of emitted light reports the rotation of a fluorescent probe.)

Series [1] is described as follows: Solubility determination of MK2 inhibitors (kinetic aqueous solubility, UPLC). The following applies: aqueous buffer (system solution from pION inc.), 22 °C, pH 7.4, aqueous buffer, kinetic from dmso stock. Format: physicochemical. Here is the method: The solubility can be determined using the Automated Kinetic Aqueous Solubility (AKASol) method, which is an HPLC-UV based method. The method is derived from the classical saturated shake-flask solubility method which has been adapted to the 96-well microtitre plate format, allowing the use of DMSO stock solutions. The solubility is determined by measuring the amount of compound in a saturated aqueous solution, quantified by an external calibration curve of the compound dissolved in DMSO. The solubility (mg/L) is measured at pH 7.4, at room temperature and the final concentration of DMSO in the sample solution is 1%.
The samples were prepared from 10 mM DMSO stock solutions. For each compound under investigation, a volume (9 μL) of the DMSO stock solution is transferred from the DMSO stock solution into 891 μL of buffer solution (system solution from pION inc.) in a 96 deep well plate, which equates to approximately 1% DMSO, using the Packard Multiprobe II robot liquid handling system. The pH of the buffer is manually adjusted at pH 7.4 by adding NaOH. This procedure is done in duplicate for each sample. After shaking for 24 h on a vortex mixer (Heidolph, Titramax 101) at 450 rpm and at room temperature (21-23° C.), 300 uL of the incubated sample is transferred from the deep well plate to a filter plate (PVDF, 0.45 um) on a vacuum manifold. To the filtrate (150 uL) 1-propanol (50 uL) is added to suppress precipitation and this solution is then analysed by UPLC. The solubility is determined using the calibration line previously prepared.
Preparation of the Standards and Built up of a Calibration Line
The calibration line is built with different concentrations of the test compound (standards), prepared from the same 10 mM DMSO stock solution. A volume (7 uL) from the same DMSO stock solution was diluted with DMSO (273 uL) leading to a solution with concentration of 0.25 mM. From this solution, three different injection volumes (0.2, 1, 1.8 uL) were injected on UPLC. The respective peak areas are plotted against amount of compound to build up the calibration line. The calibration line is used to determine the amount of dissolved compound in each sample, selecting the injection that gave peak areas closest to the peak area range of the calibration standards.

[2] abbreviates: MK2 IMAP assay, 1 μM ATP, 30 min pre-incubation, 2 h room temperature, read-out: pEC50 value (converted).
[3] abbreviates: pH 7.4, room temperature, about 1% DMSO, 24 h shaking, read-out: solubility.
Where [4] appears, read: Table 1, compound of Formula (I) with spiro ring, MK2 IMAP assay, read-out: pEC50, Formula (I) (converted).
Where [5] appears, read: Table 1, compound of Formula (I) with spiro ring, pH 7.4, read-out: Solubility pH 7.4 (mg/L), Formula (I).
Setting [6] is: Table 1, comparison compound of Formula (XV) without spiro ring, MK2 IMAP assay, read-out: pEC50, Formula (XV) (converted).
Setting [7] is: Table 1, comparison compound of Formula (XV) without spiro ring, pH 7.4, read-out: Solubility pH 7.4 (mg/L), Formula (XV).

The results in this text go back to US8772286B2, “MK2 inhibitors” (Merck Sharp & Dohme B.V., priority 2009, dated 2014).

In brackets after ≈: the same amount, converted by molar mass. Where two headings read alike, the source gives them in different places.

T1 sequence (P49137 46-400 limits assumed): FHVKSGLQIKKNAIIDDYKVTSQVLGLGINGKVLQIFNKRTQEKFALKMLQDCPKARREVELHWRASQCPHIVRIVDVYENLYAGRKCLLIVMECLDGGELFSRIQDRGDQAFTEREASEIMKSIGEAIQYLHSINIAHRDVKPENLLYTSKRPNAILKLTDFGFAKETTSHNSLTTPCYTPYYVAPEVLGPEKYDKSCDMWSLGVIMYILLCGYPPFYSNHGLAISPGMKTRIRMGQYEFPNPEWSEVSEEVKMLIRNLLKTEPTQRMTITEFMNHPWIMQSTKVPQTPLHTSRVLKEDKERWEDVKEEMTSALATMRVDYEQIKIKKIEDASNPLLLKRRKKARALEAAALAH

With `Cc1ccc(-c2nccc(-c3cc4c([nH]3)C3(CCNC3)CNC4=O)n2)cc1` (stereo not drawn) [6—3, 2′-(2-p-tolylpyrimidin-4-yl)-5′,6′-dihydrospiro[pyrrolidine-3,7′-pyrrolo[3,2-c]pyridin]-4′(1′H)-one], at MK2 enzyme (setting [2]), the EC50 was 3.16 to 31.6 nM. Besides, the solubility at 24 h in series [1] (setting [3]) is at least 50 mg/L.
`O=C1NCC2(CCNC2)c2[nH]c(-c3ccnc(-c4cccc(F)c4)n3)cc21` (stereo not drawn) [6—4, 2′-(2-(3-fluorophenyl)pyrimidin-4-yl)-5′,6′-dihydrospiro[pyrrolidine-3,7′-pyrrolo[3,2-c]pyridin]-4′(1′H)-one]: the EC50 on MK2 enzyme (setting [2]) is 3.16 to 31.6 nM. Further, the solubility at 24 h in series [1] (setting [3]) was in the range of 20 to 50 mg/L (≈ 55 to 138 µM).
With `COc1cc(-c2nccc(-c3cc4c([nH]3)C3(CCNCC3)CNC4=O)n2)ccc1O` [1—20, 2′-(2-(4-hydroxy-3-methoxyphenyl)pyrimidin-4-yl)-5′,6′-dihydrospiro[piperidine-4,7′-pyrrolo[3,2-c]pyridin]-4′(1′H)-one], the EC50 on MK2 enzyme (setting [2]) is 31.6 to 316 nM. Besides, the solubility at 24 h in series [1] (setting [3]) was at least 50 mg/L.
On the same counts, the results for `O=C(Nc1cc(-c2cc3c([nH]2)C2(CCNCC2)CNC3=O)ccn1)c1ccc(C(F)(F)F)cc1` [Example 12—1, N-(4-(4′-oxo-1′,4′,5′,6′-tetrahydrospiro[piperidine-4,7′-pyrrolo[3,2-c]pyridine]-2′-yl)pyridin-2-yl)-4-(trifluoromethyl)benzamide] are at most 3.16 nM and 20 to 50 mg/L (≈ 42.6 to 107 µM).
Take `CC(=O)NCCCN1CCC2(CC1)CNC(=O)c1cc(-c3ccnc(-c4cc5ccccc5o4)n3)[nH]c12` [3—2, N-(3-(2′-(2-(benzofuran-2-yl)pyrimidin-4-yl)-4′-oxo-1′,4′,5′,6′-tetrahydrospiro[piperidine-4,7′-pyrrolo[3,2-c]pyridine]-1-yl)propyl)acetamide]: at MK2 enzyme (setting [2]), the EC50 was 31.6 to 316 nM. Also, the solubility at 24 h in series [1] (setting [3]) was at least 50 mg/L.
Take `O=C1NCC2(CCNCC2)c2[nH]c(-c3nc(-c4cnc5ccccc5c4)ncc3F)cc21` [4—3, 2′-(5-fluoro-2-(quinolin-3-yl)pyrimidin-4-yl)-5′,6′-dihydrospiro[piperidine-4,7′-pyrrolo[3,2-c]pyridin]-4′(1′H)-one]: the EC50 at MK2 enzyme (setting [2]) is at most 3.16 nM. Also, the solubility at 24 h in series [1] (setting [3]) is at least 50 mg/L.
The like results for `Cc1cc(-c2nccc(-c3cc4c([nH]3)C3(CCNCC3)CNC4=O)n2)cc(C(C)(C)C)c1` [1—19, 2′-(2-(3-tert-butyl-5-methylphenyl)pyrimidin-4-yl)-5′,6′-dihydrospiro[piperidine-4,7′-pyrrolo[3,2-c]pyridin]-4′(1′H)-one] were, in that order, 31.6 to 316 nM and at least 50 mg/L.
On to `O=C1NCC2(CCNCC2)c2[nH]c(-c3ccnc(-c4ccc(C5CCCCC5)cc4)n3)cc21` [1—18, 2′-(2-(4-cyclohexylphenyl)pyrimidin-4-yl)-5′,6′-dihydrospiro[piperidine-4,7′-pyrrolo[3,2-c]pyridin]-4′(1′H)-one], for which the EC50 at MK2 enzyme (setting [2]) was 31.6 to 316 nM. For the same molecule, in series [1] (setting [3]), the solubility at 24 h lay in the range of 20 to 50 mg/L (≈ 45.3 to 113 µM).
As for `O=C1NCC2(CCNC2)c2[nH]c(-c3ccnc(-c4cnc5ccccc5c4)n3)cc21` (stereo not drawn) [Example 6—1, 2′-(2-(quinolin-3-yl)pyrimidin-4-yl)-5′,6′-dihydrospiro[pyrrolidine-3,7′-pyrrolo[3,2-c]pyridin]-4′(1′H)-one], the EC50 on MK2 enzyme (setting [2]) is at most 3.16 nM. Further, the solubility at 24 h in series [1] (setting [3]) is 20 to 50 mg/L (≈ 50.4 to 126 µM).
On the same counts, the results for `O=C1NCC2(CCNCC2)c2[nH]c(-c3ccnc(-c4ccc(C(F)(F)F)c(Cl)c4)n3)cc21` [1—10, 2′-(2-(3-chloro-4-(trifluoromethyl)phenyl)pyrimidin-4-yl)-5′,6′-dihydrospiro[piperidine-4,7′-pyrrolo[3,2-c]pyridin]-4′(1′H)-one] are 3.16 to 31.6 nM and at least 50 mg/L.
Take `CC(=O)c1ccc(-c2nccc(-c3cc4c([nH]3)C3(CCNCC3)CNC4=O)n2)cc1` [16_8 Formula (I)]: on MK2 enzyme (setting [4]), the EC50 is 6.31 nM. The solubility at 24 h in series [1] (setting [5]) was found to be 35 mg/L.
Consider `O=C(Nc1nccc(-c2cc3c([nH]2)C2(CCCNC2)CNC3=O)n1)c1ccc(C(F)(F)F)cc1` (stereo not drawn) [Example 13—1, N-(4-(4′-oxo-1′,4′,5′,6′-tetrahydrospiro[piperidine-3,7′-pyrrolo[3,2-c]pyridine]-2′-yl)pyrimidin-2-yl)-4-(trifluoromethyl)benzamide], for which the EC50 at MK2 enzyme (setting [2]) is 31.6 to 316 nM. Also, the solubility at 24 h in series [1] (setting [3]) fell in the range of 20 to 50 mg/L (≈ 42.5 to 106 µM).
For the molecule `O=C1NCC2(CCNCC2)c2[nH]c(-c3ccnc(-c4cc5ccccc5o4)n3)cc21` [16_6 Formula (I)], at MK2 enzyme (setting [4]), the EC50 is 6.31 nM. Also, the solubility at 24 h in series [1] (setting [5]) came to 84 mg/L.
Regarding `CC(=O)c1ccc(-c2nccc(-c3cc4c([nH]3)CCNC4=O)n2)cc1` [16_8 Formula (XV)], on MK2 enzyme (setting [6]), the EC50 is 126 nM. Also, in series [1] (setting [7]), the solubility at 24 h amounted to 3 mg/L.
Regarding `O=C1NCC2(CCNCC2)c2[nH]c(-c3ccnc(-c4cccc(C(F)(F)F)c4)n3)cc21` [1—35, 2′-(2-(3-(trifluoromethyl)phenyl)pyrimidin-4-yl)-5′,6′-dihydrospiro[piperidine-4,7′-pyrrolo[3,2-c]pyridin]-4′(1′H)-one], the EC50 at MK2 enzyme (setting [2]) was 3.16 to 31.6 nM. The solubility at 24 h in series [1] (setting [3]) was at least 50 mg/L.
As for `O=C1NCCc2[nH]c(-c3ccnc(-c4ccccc4F)n3)cc21` [16_4 Formula (XV)], the EC50 at MK2 enzyme (setting [6]) was 1000 nM. In addition, the solubility at 24 h in series [1] (setting [7]) is 44 mg/L.
Regarding `O=C1NCC2(CCNCC2)c2[nH]c(-c3ccnc(-c4cccc(F)c4)n3)cc21` [1—5, 2′-(2-(3-fluorophenyl)pyrimidin-4-yl)-5′,6′-dihydrospiro[piperidine-4,7′-pyrrolo[3,2-c]pyridin]-4′(1′H)-one], the EC50 at MK2 enzyme (setting [2]) is 3.16 to 31.6 nM. In addition, in series [1] (setting [3]), the solubility at 24 h lay within 20 to 50 mg/L (≈ 53 to 132 µM).
On the same counts, the results for `O=C1NCC2(CCNCC2)c2[nH]c(-c3ccnc(-c4ccc5ccccc5c4)n3)cc21` [1—24, 2′-(2-(naphthalen-2-yl)pyrimidin-4-yl)-5′,6′-dihydrospiro[piperidine-4,7′-pyrrolo[3,2-c]pyridin]-4′(1′H)-one] are 3.16 to 31.6 nM and at least 50 mg/L.
Regarding `O=C1NCC2(CCNC2)c2[nH]c(-c3ccnc(-c4ccc5c(c4)OCO5)n3)cc21` (stereo not drawn) [6—2, 2′-(2-(benzo[d][1,3]dioxol-5-yl)pyrimidin-4-yl)-5′,6′-dihydrospiro[pyrrolidine-3,7′-pyrrolo[3,2-c]pyridin]-4′(1′H)-one], the EC50 at MK2 enzyme (setting [2]) was 3.16 to 31.6 nM. For the same molecule, in series [1] (setting [3]), the solubility at 24 h is at least 50 mg/L.
For `O=C1NCC2(CCNC2)c2[nH]c(-c3ccnc(-c4cc5ccccc5o4)c3)cc21` (stereo not drawn) [6—5, 2′-(2-(benzofuran-2-yl)pyridin-4-yl)-5′,6′-dihydrospiro[pyrrolidine-3,7′-pyrrolo[3,2-c]pyridin]-4′(1′H)-one], the EC50 on MK2 enzyme (setting [2]) was 3.16 to 31.6 nM. The solubility at 24 h in series [1] (setting [3]) was at least 50 mg/L.
In the case of `CN1CCC2(CC1)CNC(=O)c1cc(-c3ccnc(-c4cc5ccccc5o4)n3)[nH]c12` [Example 2—1, 2′-(2-(benzofuran-2-yl)pyrimidin-4-yl)-1-methyl-5′,6′-dihydrospiro[piperidine-4,7′-pyrrolo[3,2-c]pyridin]-4′(1′H)-one], on MK2 enzyme, the EC50 lay in the range of 3.16 to 31.6 nM. Besides, the solubility at 24 h in series [1] (setting [3]) fell in the range of 20 to 50 mg/L (≈ 48.4 to 121 µM).
